Measured values as given in patent publication EP1029544A1, “INTRA-CANCER-CELL NUCLEASE ACTIVATOR” (Nippon Shinyaku Co., Ltd., priority 1997, dated 1999).
Converted amounts (≈) assume the structure as drawn.

Legend:
Assay in all cases: Growth inhibitory effect (in vitro), MTT method
Format in all cases: cell-based
[1] = test system: RD; details: Homo sapiens, 72 h, Rhabdomyosarcoma, 3 days
Method: (§1) A 96-well plate was seeded with cells at a density of 10^4 cells/well. On the following day, the activator of Example 4 or adriamycin was added and the cultivation was continued. After 3 days the viable cell count was determined by the MTT method.

[2] = test system: McA-8994; details: 72 h; McA-8994, Rat hepatoma; 3 days
Method: as §1

[3] = test system: BNL CL.2; details: 72 h; BNL CL.2, Mouse normal liver cell (non-cancer); 3 days
Method: as §1

[4] = test system: WM-266-4; details: Homo sapiens, 72 h; WM-266-4, Melanoma; 3 days
Method: as §1

[5] = test system: KM12-HX; details: Homo sapiens, 72 h, Colon cancer, 3 days
Method: as §1

[6] = test system: SAOS2; details: Homo sapiens, SAOS-2, 72 h; SAOS2, Osteogenic sarcoma; 3 days
Method: as §1

[7] = test system: SW480; details: Homo sapiens, 72 h; SW480, Colon adenocarcinoma; 3 days
Method: as §1

[8] = test system: TSU-PR-1; details: Homo sapiens, TSU-Pr1, 72 h; TSU-PR-1, Prostate cancer; 3 days
Method: as §1

[9] = test system: Clone9; details: 72 h; Clone9, Rat normal liver cell (non-cancer); 3 days
Method: as §1

[10] = test system: A673; details: Homo sapiens, 72 h; A673, Rhabdomyosarcoma; 3 days
Method: as §1

[11] = test system: HT1376; details: Homo sapiens, HT-1376, 72 h; HT1376, Bladder carcinoma; 3 days
Method: as §1

[12] = test system: PC-3; details: Homo sapiens, 72 h; PC-3, Prostate adenocarcinoma; 3 days
Method: as §1

[13] = test system: WRL68; details: 72 h; WRL68, Human embryo liver cell (non-cancer); 3 days
Method: as §1

[14] = test system: A-204; details: Homo sapiens, A204, 72 h; A-204, Rhabdomyosarcoma; 3 days
Method: as §1

[15] = test system: OVCAR3; details: Homo sapiens, OVCAR-3, 72 h; OVCAR3, Ovary adenocarcinoma; 3 days
Method: as §1

[16] = test system: NRK-49F; details: 72 h, Rat normal kidney fibroblast (non-cancer), 3 days
Method: as §1

[17] = test system: Hs0578T; details: 72 h, Breast ductal carcinoma, 3 days
Method: as §1

[18] = test system: MDA-MB-134VI; details: Homo sapiens, 72 h, Breast ductal carcinoma, 3 days
Method: as §1

[19] = test system: SK-OV-3; details: Homo sapiens, 72 h; SK-OV-3, Ovary adenocarcinoma; 3 days
Method: as §1

[20] = test system: NCTCclone1469; details: 72 h; NCTCclone1469, Mouse normal liver cell (non-cancer); 3 days
Method: as §1

[21] = test system: COLO320DM; details: Homo sapiens, COLO 320DM, 72 h, Colon adenocarcinoma, 3 days
Method: as §1

[22] = test system: NIH/3T3; details: NIH3T3, 72 h; NIH/3T3, Mouse embryonic cell (non-cancer); 3 days
Method: as §1

[23] = test system: CHO-K1; details: Cricetulus griseus, 72 h; CHO-K1, Chinese hamster ovary cell (non-cancer); 3 days
Method: as §1

[24] = test system: SK-HEP-1; details: Homo sapiens, SK-HEP1, 72 h; SK-HEP-1, Liver adenocarcinoma; 3 days
Method: as §1

[25] = test system: HeLaS3; details: Homo sapiens, HeLa S3, 72 h; HeLaS3, Cervix epitheloid carcinoma; 3 days
Method: as §1

[26] = test system: AsPC-1; details: Homo sapiens, ASPC1, 72 h; AsPC-1, Pancreatic adenocarcinoma; 3 days
Method: as §1

[27] = test system: A546; details: 72 h; A546, Lung carcinoma; 3 days
Method: as §1

[28] = test system: NC65; details: 72 h; NC65, Pancreatic cancer; 3 days
Method: as §1

[29] = test system: G-361; details: Homo sapiens, 72 h; G-361, Malignant melanoma; 3 days
Method: as §1

[30] = test system: PLC/PRF/5; details: Homo sapiens, 72 h; PLC/PRF/5, Hepatoma; 3 days
Method: as §1

[31] = test system: BALB/c CL.7; details: 72 h; BALB/c CL.7, Mouse normal fibroblast (non-cancer); 3 days
Method: as §1

[32] = test system: LoVo; details: Homo sapiens, 72 h, Colon adenocarcinoma, 3 days
Method: as §1

[33] = test system: SK-BR-3; details: Homo sapiens, 72 h; SK-BR-3, Breast adenocarcinoma; 3 days
Method: as §1

[34] = test system: Malme 3M; details: Homo sapiens, 72 h, Malignant melanoma, 3 days
Method: as §1

[35] = test system: Swiss/3T3; details: 72 h; Swiss/3T3, Mouse embryonic cell (non-cancer); 3 days
Method: as §1

[36] = test system: MDA-MB-453; details: Homo sapiens, 72 h; MDA-MB-453, Breast carcinoma; 3 days
Method: as §1

[37] = test system: DU145; details: Homo sapiens, DU-145, 72 h; DU145, Prostate carcinoma; 3 days
Method: as §1

[38] = test system: CALU6; details: Homo sapiens, Calu-6, 72 h; CALU6, Lung anaplastic carcinoma; 3 days
Method: as §1

[39] = test system: BALB/c3T3 cloneA31; details: 72 h; BALB/c3T3 cloneA31, Mouse embryonic cell (non-cancer); 3 days
Method: as §1

[40] = test system: T47D; details: Homo sapiens, 72 h, Breast ductal carchoma, 3 days
Method: as §1

[41] = test system: KB; details: Homo sapiens, 72 h, Oral epidemiod carcinoma, 3 days
Method: as §1

[42] = test system: A431; details: Homo sapiens, A-431, 72 h; A431, Epidemoid carcinoma; 3 days
Method: as §1

[43] = test system: MDA-MB-468; details: Homo sapiens, 72 h; MDA-MB-468, Breast adenocarcinoma; 3 days
Method: as §1

[44] = test system: HT144; details: Homo sapiens, HT-144, 72 h; HT144, Malignant melanoma; 3 days
Method: as §1

[45] = test system: Ls174T; details: Homo sapiens, 72 h, Colon adenocarcinoma, 3 days
Method: as §1

[46] = test system: RT4; details: Homo sapiens, RT-4, 72 h; RT4, Bladder papillima; 3 days
Method: as §1

[47] = test system: HCC-T; details: 72 h, Liver cancer, 3 days
Method: as §1

[48] = test system: BHK-21; details: Mesocricetus auratus, 72 h; BHK-21, Hamster kidney cell (non-cancer); 3 days
Method: as §1

IC50 [7]: 0.097 µg/mL (≈ 0.178 µM)
IC50 [11]: 0.217 µg/mL (≈ 0.399 µM)
IC50 [12]: > 1 µg/mL
IC50 [15]: > 1 µg/mL
IC50 [18]: 0.081 µg/mL (≈ 0.149 µM)
IC50 [19]: 0.252 µg/mL (≈ 0.464 µM)
IC50 [21]: 0.838 µg/mL (≈ 1.54 µM)
IC50 [24]: 0.302 µg/mL (≈ 0.556 µM)
IC50 [25]: 0.049 µg/mL (≈ 0.0902 µM)
IC50 [26]: 0.8 µg/mL (≈ 1.47 µM)
IC50 [32]: 0.065 µg/mL (≈ 0.12 µM)
IC50 [33]: 0.078 µg/mL (≈ 0.144 µM)
IC50 [36]: 0.143 µg/mL (≈ 0.263 µM)
IC50 [37]: 0.236 µg/mL (≈ 0.434 µM)
IC50 [38]: 0.282 µg/mL (≈ 0.519 µM)
IC50 [40]: 0.114 µg/mL (≈ 0.21 µM)
IC50 [41]: 0.025 µg/mL (≈ 0.046 µM)
IC50 [42]: 0.052 µg/mL (≈ 0.0957 µM)
IC50 [43]: 0.057 µg/mL (≈ 0.105 µM)
IC50 [44]: 0.219 µg/mL (≈ 0.403 µM)
IC50 [47]: 0.076 µg/mL (≈ 0.14 µM)
Structure (SMILES): COc1cccc2c1C(=O)c1c(O)c3c(c(O)c1C2=O)C[C@@](O)(C(=O)CO)C[C@@H]3O[C@H]1C[C@H](N)[C@H](O)[C@H](C)O1 [Adriamycin]
IC50 [1]: 0.208 µg/mL (≈ 0.383 µM)
IC50 [2]: > 1 µg/mL
IC50 [3]: 0.398 µg/mL (≈ 0.732 µM)
IC50 [4]: 0.206 µg/mL (≈ 0.379 µM)
IC50 [5]: 0.13 µg/mL (≈ 0.239 µM)
IC50 [6]: 0.075 µg/mL (≈ 0.138 µM)
IC50 [8]: 0.572 µg/mL (≈ 1.05 µM)
IC50 [9]: 0.228 µg/mL (≈ 0.419 µM)
IC50 [10]: 0.104 µg/mL (≈ 0.191 µM)
IC50 [13]: 0.283 µg/mL (≈ 0.521 µM)
IC50 [14]: 0.076 µg/mL (≈ 0.14 µM)
IC50 [16]: > 1 µg/mL
IC50 [17]: 0.76 µg/mL (≈ 1.4 µM)
IC50 [20]: 0.101 µg/mL (≈ 0.186 µM)
IC50 [22]: 0.102 µg/mL (≈ 0.188 µM)
IC50 [23]: 0.02 µg/mL (≈ 0.0368 µM)
IC50 [27]: 0.831 µg/mL (≈ 1.53 µM)
IC50 [28]: 0.073 µg/mL (≈ 0.134 µM)
IC50 [29]: 0.146 µg/mL (≈ 0.269 µM)
IC50 [30]: 0.042 µg/mL (≈ 0.0773 µM)
IC50 [31]: 0.117 µg/mL (≈ 0.215 µM)
IC50 [34]: 0.114 µg/mL (≈ 0.21 µM)
IC50 [35]: 0.903 µg/mL (≈ 1.66 µM)
IC50 [39]: 0.427 µg/mL (≈ 0.786 µM)
IC50 [45]: 0.096 µg/mL (≈ 0.177 µM)
IC50 [46]: 0.058 µg/mL (≈ 0.107 µM)
IC50 [48]: 0.047 µg/mL (≈ 0.0865 µM)
